Patent publication US9327264B2, “Containerless synthesis of amorphous and nanophase organic materials” (UCHICAGO ARGONNE, LLC, priority 2011, dated 2016)
Like-named read-outs stand apart in the source and are kept apart here.

Key:
Type in all cases: physicochemical
[1] = Shelf life of substantially pure amorphized materials stored at 4° C. (x-ray diffraction)
Source text: The inventors have discovered that acoustic levitation produces amorphous forms of a variety of organic compounds having different glass forming abilities. […] It is also noted that the term “vitreous”, “vitrify”, “vitrification”, “glass” and “glassy” are variations of amorphous for the purposes of this specification and may be used interchangeably. The x-ray diffraction patterns were obtained using very high flux, high energy x-rays that are capable of detecting even minute (<1%) traces of crystalline materials. A configuration to enable x-ray beam analysis is depicted in FIG. 8 and discussed infra.
Several amorphized samples were quenched by trapping them in a small volume of liquid quenchent (for example liquid nitrogen, which is maintained at about −196° C.). The quenched samples were stored at temperatures ranging from about −20° C. to 25° C.
Shelf life is therefore extended by cooling them. […] For bulk storage of amorphized materials, samples are stored at temperatures below freezing (0° C.) if the samples are to be kept more than 150 days. However, for short term storage (e.g., less than 150 days), stability is achieved at storage temperatures up to about 20° C.
Myriad types of materials are candidates for processing using the invented weightless process. Suitable genuses of material include, but are not limited to pharmaceuticals, antibiotics, cosmetics, foods such as dairy products, and combinations thereof. Table 1 below depicts the sample stability over time for various amorphous materials produced using the invented method.
The structure of the starting crystalline materials, the supersaturated samples processed in the levitator, and the in-situ progress of the evaporation experiments were measured using the 115 keV x-ray diffraction beam line 11-ID-C at the Advanced Photon Source, located at Argonne National Laboratory, Argonne, Ill. X-rays with an incident wavelength of 0.10798 Å were used and the scattered x-ray intensity was measured with a flat plate a-Si Perkin Elmer area detector (model XRD 1621). Generally, radiations greater than 40 keV are suitable to provide bulk structure detail of materials about a millimeter or two in size.

[2] = Glass transition temperature Tg
Experimental: The quenched samples were stored at temperatures ranging from about −20° C. to 25° C.

[3] = Retention of amorphous form on temperature exposure and room temperature storage (x-ray diffraction); conditions: for Time amorphous form could be stored: room temperature, in glass or in contact with polyimide film; for Amorphous state during temperature exposure: exposure to temperatures between about −200° C. and 25° C.
Source text: (Suitable film is polyimide film, e.g., Kapton from Dupont.)
The structure and properties of stable or meta-stable amorphous gels are often quite different from their crystalline counterparts. Therefore at, or just prior to, tP the gels were quenched into a small dish of liquid nitrogen in an attempt to preserve the amorphous forms. The cold solid samples were quickly recovered and re-levitated. In-situ x-ray structure measurements were then made on the cold solids as they warmed back to room temperature.
Generally, radiations greater than 40 keV are suitable to provide bulk structure detail of materials about a millimeter or two in size.

[4] = In situ x-ray monitoring of levitated amorphous gel over time; conditions: after more than 14 hours of in situ measurements on the levitated drop, from ethanol solution
Source text: By following the position of the principal peak in the x-ray diffraction patterns for all the supersaturated solutions, the amorphization process was investigated as a function of time. […] The fact there are no sharp (needle like) peaks in the measured spectra indicates the materials are completely amorphous. […] Some of the samples prepared using the invented process maintained their amorphous form for at least three weeks. This imaging method enabled the structural evolution of the material to be monitored in real time. The data were acquired from levitated samples in two minute duration sets.

[5] = quenched samples stored at about −20° C. to 25° C., as noted in Table 1

Row | Tg [2] | Time amorphous form could be stored [3] | Amorphous state during temperature exposure [3] | Stability of amorphized drug over a period of months [1, 5] | also measured | Compound
1 | 27 °C | – | – | – | Stability of amorphized drug over a period of months [1]: remained substantially stable | CC(C)(Sc1cc(C(C)(C)C)c(O)c(C(C)(C)C)c1)Sc1cc(C(C)(C)C)c(O)c(C(C)(C)C)c1 [Probucol]
2 | – | at least three | – | – | Changes in structure of levitated amorphous gel after plateau [4]: only minimal changes in structure | CC(C)Cc1ccc(C(C)C(=O)O)cc1 (stereo not shown) [Ibuprofen]
3 | – | at least three | remain amorphous | – | – | CC(C)(C)CC(C)(C)c1ccc(O)c(Cc2ccc(Cl)cc2Cl)c1 [Clofoctol]
4 | 30 °C | at least three | remain amorphous | remained substantially stable | – | Clc1ccccc1C(c1ccccc1)(c1ccccc1)n1ccnc1 [Clotrimazole]
5 | 1 °C | – | – | remained substantially stable | – | Clc1ccc(COC(Cn2ccnc2)c2ccc(Cl)cc2Cl)c(Cl)c1 (stereo not shown) [Miconazole Nitrate]
6 | 7 °C | – | – | remained substantially stable | – | C(=C\c1ccccc1)/CN1CCN(C(c2ccccc2)c2ccccc2)CC1 [Cinnazirine, Cinnarizine]
7 | 61 °C | – | – | – | Shelf life: amorphous state at time 1 month ([1]; stored at 4° C., 1 month): A/P; Shelf life: amorphous state at time 2 months ([1]; stored at 4° C., 2 months): A/P; Shelf life: amorphous state at time 3 months ([1]; stored at 4° C., 3 months): A/P; Shelf life: amorphous state at time 4 months ([1]; stored at 4° C., 4 months): A/P | NC(=O)N1c2ccccc2C=Cc2ccccc21 [Carbamazepine]
8 | −3 °C | at least three | remain amorphous | – | – | CC(C(=O)O)c1cccc(C(=O)c2ccccc2)c1 (stereo not shown) [Ketoprofen]
